Legend:
[1] = In-vitro rat lipolysis: simulated rat gastric (0-30 min) and intestinal (30-90 min) digestion; format: in vitro ADME
Procedure: FIG. 4. CBD solubility in-vitro in simulated gastric (0-30 min) and intestinal (30-90 min) conditions. Group 1: MCT. Group 2: 50 mg/ml TPM in MCT. Group 3: 100 mg/ml TPM in MCT. Group 4: 100 mg/ml TPM in 1:1 MCT/Maisine CC. Group 5: 200 mg/ml TPM in 1:1 MCT/Maisine CC.
Further in-vitro lipolysis experiments were conducted to investigate CBD dispersibility and solubility in a model of the gastric and intestinal spaces. The effect of TPM and the formulation vehicle was assessed by comparison to CBD dissolved in an MCT vehicle at 100 mg/ml. A rat gastric-intestinal model was selected in order to have best correlation with a subsequent in-vivo pk study in rats.
The in vitro lipolysis experiment simulated rat gastrointestinal conditions. The dispersion study was done in a lipolysis vessel containing simulated rat gastric medium at pH 2.4 and the gastric digestion of the formulations was assessed during 30 min. Afterwards, a concentrated bile buffer together with pancreatin was added to the gastric medium leading to the final concentrations which simulated the rat intestinal conditions. Subsequently, lipid digestion and drug solubilization was evaluated for 60 min.

[2] = In vivo bioavailability (pk study) after a single oral gavage; set-up: species or system Sprague-Dawley rats; settings: rats
Procedure: Male Sprague-Dawley rats (301-353 g at the time of the study) are acclimatized for a minimum of seven days on standard feed with free access to water. The rats are housed under controlled environmental parameters (temperature: 22.1° C., relative humidity: 57%), and with reversed light cycle (12 h/12 h).
The formulations are administered to each rat by oral gavage with a polyurethane feeding tube (Instech Laboratories Inc., Plymouth Meeting, USA). Blood samples (200 μL) are collected from the tail vein before dosing and at 0, 0.5, 1, 2, 4, 6, and 8 h after dosing. After the 6 h blood sample, the rats were given access to standard feed. At 23 h, the rats are euthanized by gassing and a blood sample is withdrawn from the heart immediately after. All blood samples were collected in ethylenediaminetetraacetic acid (EDTA) tripotassium salt dihydrate coated tubes (Sarstedt, Helsingborg, Sweden), and centrifuged at 10,000 RPM for 10 min. After centrifugation, the plasma was transferred to polypropylene microtubes and stored at −20° C. until LC-MS analysis.

[3] = In vitro intestinal digestion of carrier oil in fasted media (pH 6.5): solubilisation of CBD; format: in vitro ADME; settings: with TPM
Procedure: FIG. 1—Solubilisation of CBD during in vitro intestinal digestion of carrier oil (MCT, LCT/LCFA, or a mixture of MCT:LCT/LCFA) in fasted media (pH 6.5). Total lipid was 110 mg (100 mg carrier oil+10 mg CBD). Data are mean±SD, n=3. A. CBD concentration (mg) during digestion in MCT. B. CBD concentration (mg) during digestion in LCT/LCFA (Maisine CC). C. CBD concentration (mg) during digestion in a mixture of MCT:LCT/LCFA (Maisine CC)
FIG. 2—Solubilisation of CBD in the presence of TPM during in vitro gastro-intestinal digestion of carrier oil (MCT, LCT/LCFA, or a mixture of MCT:LCT/LCFA) in fasted media. Total lipid was 110 mg (80-90 mg carrier oil+10 mg CBD+10-20 mg TPM). Data are mean±SD, n=3. A. CBD concentration (mg) during digestion in MCT with TPM. B. CBD concentration (mg) during digestion in LCT/LCFA (Maisine CC) with TPM. C. CBD concentration (mg) during digestion in a mixture of MCT:LCT/LCFA (Maisine CC) with TPM.
FIG. 3—Solubilisation of CBD in the presence of TPM during in vitro digestion of carrier oil (MCT, LCT/LCFA, or a mixture of MCT:LCT/LCFA) in fasted media (pH 6.5). Total lipid was 110 mg (80-90 mg carrier oil+10 mg CBD+10-20 mg TPM). Data are mean±SD, n=3. A. CBD concentration (mg) during digestion in 3:1 MCT:LCT/LCFA, with TPM. B. CBD concentration (mg) during digestion in 1:1 MCT:LCT/LCFA, with TPM. C. CBD concentration (mg) during digestion in 1:3 MCT:LCT/LCFA, with TPM.
In vitro digestion experiments were carried out to determine whether TPM in various carrier oils could increase the intestinal aqueous solubility of CBD. These experiments utilised a model of digestion in an intestinal environment at a pH of about 6.5. From the model, one can make determinations regarding the likely solubility of CBD or other cannabinoids such as THC in an aqueous intestinal fluid.

C=C(C)[C@@H]1CCC(C)=C[C@H]1c1c(O)cc(CCCCC)cc1O [CBD, cannabidiol]
dispersibility and solubility of CBD in simulated gastric and intestinal spaces ([1]; addition of TPM to MCT containing CBD (100 mg/ml)): increased | dispersibility and solubility of CBD in the intestinal space ([1]; addition of TPM to MCT:LCT/LCFA vehicles containing CBD (100 mg/ml)): increased | increase of mean Cmax relative to control CBD formulation in MCT alone ([2]; addition of 50 mg/ml TPM to MCT carrier): ~5 × | increase of mean Cmax relative to control CBD formulation in MCT alone ([2]; addition of 100 mg/ml TPM to MCT carrier): ~14 times | increase of mean Cmax relative to control CBD formulation in MCT alone ([2]; addition of 100 mg/ml TPM to MCT:LCT/LCFA carrier): ~30 × | increase of mean Cmax relative to control CBD formulation in MCT alone ([2]; addition of 200 mg/ml TPM to MCT:LCT/LCFA carrier): ~40 times | aqueous CBD solubility during digestion, by MCT:LCT/LCFA ratio ([3]; vehicle 1:1 MCT:LCT/LCFA): best increase | aqueous CBD solubility during digestion, by MCT:LCT/LCFA ratio ([3]; vehicle 1:3 MCT:LCT/LCFA, also significant CBD in immiscible oil phase): slight increase | aqueous CBD solubility during digestion, by MCT:LCT/LCFA ratio ([3]; vehicle 3:1 MCT:LCT/LCFA): CBD precipitation

From patent US12539307B2, “Oral cannabinoid formulation comprising tocopheryl phosphates and long chain triglycerides or long chain fatty acids” (AVECHO BIOTECHNOLOGY LIMITED, priority 2020, dated 2026)
